# Values joined by “and” are separate entries in the source; they are usually repeats but may differ in a detail not shown here. Identical values can stand only once.
# How the values were obtained:
# HIV-1 RoJo = assay: PBMC antiviral assay (RT activity); assay type: cell-based; conditions: 6 days, AZT control, read-out: HIV-1 RoJo Infected PBMCs IC50
# Protocol: (§1) Human immunodeficiency virus type 1 (HIV-1) strain RoJo is a low passage pediatric isolate derived in the laboratories of Southern Research Institute (SRI). The SHIV89.6pd was obtained from Mark Lewis at SRI and stocks grown in human PBMCs for antiviral testing.
# (§2) Peripheral blood monocular cells (PBMCs) were obtained from normal hepatitis and HIV-1 negative donors by ficoll hypaque gradient separation. Briefly, anti-coagulated blood was diluted 1:1 with Dulbecco's phosphate buffered saline without Ca^++ and Mg^++ (PBS) and layered over 14 mL of Lymphocyte separation media in a 50 ml centrifuge tube. Tubes were then centrifuged for 30 minutes at 600×g. […] The mononuclear cells were counted, viability determined by Trypan Blue dye exclusion and resuspended in RPMI 1640 medium supplemented with 15% FBS (heat inactivated), 2 mM L-glutamine, 100 U/mL penicillin, 100 µg/mL streptomycin, and 10 µg/mL gentamycin with 2 µg/mL phytohemagluttin (PHA) at 1×10^6 cells/mL. […]
# (§3) Human peripheral blood mononuclear cells from a minimum of 2 donors, that have been blasted with PHA and IL-2, were counted, viability determined by Trypan Blue dye exclusion and mixed in equal ratios. […] The assay was incubated for 6 days in a humidified atmosphere at 37° C., 5% CO2, after which supernatants were collected, for analysis of RT activity and sister plates analyzed for cell viability by MTS dye reduction. […]
# SHIV 89.6pd = assay: PBMC antiviral assay (RT activity); assay type: cell-based; conditions: 6 days, AZT control, read-out: SHIV 89.6pd Infected PBMCs IC50
# Protocol: as §1, §2, §3
# PBMCs = assay: MTS cell viability in PBMC assay; assay type: cell-based, human; conditions: AZT control
# Excerpt: Human peripheral blood mononuclear cells from a minimum of 2 donors, that have been blasted with PHA and IL-2, were counted, viability determined by Trypan Blue dye exclusion and mixed in equal ratios. Pooled donors were used to minimize the variability observed between individual donors which results from quantitative and qualitative differences in HIV infection and overall response to the PHA and IL-2 of primary lymphocyte populations. The cells were resuspended at 1×10^6 cells/mL in RPMI 1640 without phenol red supplemented with 15% Fetal Bovine Serum (heat inactivated), 2 mM L-glutamine, 100 U/mL penicillin, 100 μg/mL streptomycin, 10 μg/mL gentamycin and IL-2 (20 U/mL, R&D Systems, Minneapolis, Minn.). Fifty microliters of cells were then distributed to the inner 60 wells of a 96 well round bottom microtiter culture plate in a standard format developed by the Infectious Disease Research department of Southern Research Institute. Each plate contains cell control wells (cells only), virus control wells (cells plus virus), and experimental wells (drug plus cells plus virus). Serially diluted compounds are added to the microtiter plate followed by the appropriate pre-titered strain of HIV-1 or SHIV-1. All samples were assayed in triplicate with a replicate plate without virus for the determination of compound toxicity. The final volume per well was 200 µL. The assay was incubated for 6 days in a humidified atmosphere at 37° C., 5% CO2, after which supernatants were collected, for analysis of RT activity and sister plates analyzed for cell viability by MTS dye reduction. Wells were also examined microscopically and any abnormalities noted.
# At assay termination the assay plates were stained with the soluble tetrazolium-based dye MTS (CellTiter® Reagent Promega, Madison, Wis.) to determined cell viability and quantify compound toxicity. […] At termination of the PBMC assay 20 µL of MTS reagent was added per well, and the wells are incubated for 4 h at 37° C.
# AZT has been used as a relevant positive control compound for the individual assays.
# HeLa CD4 LTR […]-gal cells [1] = assay: XTT toxicity on sister plate of the fusion assay; assay type: cell-based; conditions: XTT, sister plate
# Protocol: (§4) The fusion assay assesses the ability of compounds to block cell-to-cell fusion mediated by HIV-1 Env and CD4 expressed on separate cells. This assay is sensitive to inhibitors of both the gp120/CD4 interaction and inhibitors of the X4 coreceptor. First, 5×10^3 HeLa CD4 LTR […]-gal cells are placed in microtiter wells and incubated overnight. The following day the media is removed and the HeLa CD4 LTR […]-gal cells are incubated for 1 h at 37° C. in fresh media with test compound. Following the incubation 5×10^3 HL2/3 cells are added and the incubation continued for 40 to 48 h. At 40 to 48 h […]-galactosidase enzyme expression is detected by chemiluminescence (Tropix Gal-screen™, Tropix, Bedford, Mass.). Compound toxicity is monitored on a sister plate using XTT dye reduction.
# [2] = target: T1, cell-to-cell fusion mediated by HIV-1 Env and CD4 (Human immunodeficiency virus type 1 group M subtype B, UniProt P04578); assay type: cell-based; conditions: TC50/IC50
# T1 construct: expressed in transfected cells; host or cells: HeLa CD4 LTR beta-gal cells (CD4) co-cultured with HL2/3 cells (HIV-1 Env)
# Protocol: as §4
# HeLa CD4 LTR […]-gal cells [3] = assay: XTT toxicity on sister plate of the attachment assay; assay type: cell-based; conditions: XTT, sister plate
# Protocol: This assay is designed to detect compounds that interact with the cell and block virus attachment, and/or compounds which interact with the forming attachment/fusion complex. The attachment assay is performed with HeLa CD4 LTR […]-gal cells. HeLa CD4 LTR […]-gal cells are routinely cultured with the required selection antibiotics. Twenty-four h prior to initiation of the assay the cells are trypsinized, counted and 1×10^4 cells placed in a 0.2 cm well in media without selection antibiotics. At 24 h media is removed and compound in media placed on the cells and incubated for 15 min at 37° C. A known titer of the IIIB strain of HIV is then added to the wells and the incubation continued for 1 h. At the end of the incubation the wells are washed 3 times with media and the culture continued for 40 to 48 h. At termination of the assay, media is removed and […]-galactosidase enzyme expression determined by chemiluminescence per manufacturers instructions (Tropix Gal-screen™, Bedford Mass.) by a single step chemiluminescent method using a single solution to lyse the cells and detect […]-galactosidase enzyme activity. Compound toxicity is monitored on a sister plate by XTT dye reduction. […] The virus adsorption interval of 1 h is sufficiently short that AZT, which requires phosphorylation to its active tri-phosphate form (AZT-TTP), is not active in this assay.
# ME180 cells = assay: XTT cell viability in the CD4-independent transmission assay
# Protocol: ME180 cells, a CD4 negative, X4 positive cervical epithelial cell line is maintained in RPMI 1640 supplemented with 10% fetal bovine serum, glutamine and antibiotics. Twenty-four h prior to the assay ME180 cells are trypsonized, washed and seeded in 96-well flat bottom microtiter plates at a density of 2×10^3 cells per well. On the day of the assay, H9 cells chronically infected with the SK1 clinical isolate of HIV-1 (H9-SK1) are treated with freshly made mitomycin C (200 μg/ml) for 60 minutes at 37° C. This concentration of mitomycin C is sufficient to result in cell death, but allows virus transmission to occur. After mitomycin C treatment the H9-SK1 cells are washed three times with tissue culture medium. Test compounds are added to the ME180 monolayer followed by 2×10^4 H9-SK1 cells. The ME180 cells are co-cultured with H9-SK-1 cells and test material for 4 h, and the H9-SK1 cells are removed by washing the ME180 monolayer three times with PBS. At 24 and 48 h post assay initiation the wells are again washed three times with PBS to ensure removal of the H9-SK1 cells, and culture continued in test material free media. At six days post-co-cultivation, supernatants are collected and evaluated for p24 antigen expression by ELISA. Cell viability is assessed by XTT dye reduction. […] Testing in the presence of mucin is carried out by addition of 200 µg/ml of porcine mucin (Sigma Chemical Co., St Louis, Mo.) to the transmission reactions. Transmission intervals and washing without replacement of mucin or compound are carried as described above. All determinations are performed in triplicate with serial ½ Log10 dilution of the test materials.
# TC50 values for the test materials are derived by measuring the reduction of the tetrazolium dye XTT (2,3-bis(2-methoxy-4-nitro-5-sulfophenyl)-5-[(phenylamino)carbonyl]-2H-tetrazolium hydroxide) in replicate microtiter plates containing cell and compound without virus. […] XTT solution is prepared daily as a stock of 1 mg/mL in PBS. Phenazine methosulfate (PMS) solution is prepared at 15 mg/mL in PBS and stored in the dark at −20° C. XTT/PMS stock is prepared immediately before use by diluting the PMS 1:100 into PBS and adding 40 µl per mL of XTT solution. Fifty microliters of XTT/PMS are added to each well of the plate and the plate incubated for 4 h at 37° C. The 4 h incubation has been empirically determined to be within the linear response range for […] dye reduction with the indicated numbers of cells for each assay. Adhesive plate sealers are used in place of the lids, the sealed plate is inverted several times to mix the soluble formazan product and the plate is read at 450 nm with a Molecular Devices Vmax 96 well plate format spectrophotometer.
# Dextran sulfate (positive) and dextran (negative) are used as controls for the CD4-dependent and CD4-independent HIV transmission inhibition assays. […] Commercially available Penicillin (10,000 U/ml) Streptomycin (10.0 mg/ml) solution is used as a positive control for the Lactobacillus sensitivity assay.
# GHOST(3) X4/R5 cell line = assay: XTT cell viability in the CD4-dependent transmission assay; assay type: cell-based, human
# Protocol: The […] is carried out essentially as described for the CD4-independent transmission assay except for the use of the CD4 positive GHOST(3) X4/R5 cell line. This cell line is derived from the HOS (human osteosarcoma) cell line that is negative for HIV coreceptor and CD4 expression. The cell line is engineered to express T4 (CD4), R5 and X4 via non-selectable retroviral vectors and an HIV-2 LTR hGFP construct with a hygromycin selectable marker. The cell lines are handled and cultured as described above for the CD4-independent HIV inhibition assay, with the exception that 2.5×10^4 GHOST(3) X4/R5 and 5×10^2 mitomycin C treated H9/SK-1 cells are used in the assay. Addition of compounds, mitomycin C treatment and post-transmission washing to remove the H9/SK-1 cells are performed as described above to allow comparability of the two antiviral assays. Virus replication is assessed at 24 h post infection, following 3 washes, by measurement of cell-associated p24 by ELISA to ensure a single round of infection in the presence of CD4. Compound toxicity and cell viability are assessed by XTT dye reduction.
Compound,IC50 (HIV-1 RoJo),IC50 (SHIV 89.6pd),HIV-1 RoJo Infected PBMCs TC50 (PBMCs; plate of the HIV-1 RoJo test),SHIV 89.6pd Infected PBMCs TC50 (PBMCs; plate of the SHIV 89.6pd test),Fusion Assay TC50 (HeLa CD4 LTR […]-gal cells [1]),Fusion Assay TI [2],Attachment Assay TC50 (HeLa CD4 LTR […]-gal cells [3]),"CD4-Independent Transmission Assay TC50 (ME180 cells; Exp. 2, with mucin)","CD4-Independent Transmission Assay TC50 (ME180 cells; Exp. 2, without mucin)","CD4-Dependent Transmission Assay TC50 (GHOST(3) X4/R5 cell line; Exp. 1, without mucin)","CD4-Dependent Transmission Assay TC50 (GHOST(3) X4/R5 cell line; Exp. 2, with mucin)","CD4-Dependent Transmission Assay TC50 (GHOST(3) X4/R5 cell line; Exp. 2, without mucin)"
"Cc1cn([C@H]2C[C@H](N=[N+]=[N-])[C@@H](CO)O2)c(=O)[nH]c1=O [AZT, reference compound]",5 nM,2 nM,>1000 nM,>1000 nM,–,–,–,–,–,–,–,–
"COc1cc(-c2ccc(/N=N/c3ccc4c(S(=O)(=O)O)cc(S(=O)(=O)O)c(N)c4c3O)c(OC)c2)ccc1/N=N/c1ccc2c(S(=O)(=O)O)cc(S(=O)(=O)O)c(N)c2c1O [Chicago Sky Blue, reference compound]",–,–,–,–,>10 µg/mL,>12 and >16,>10 µg/mL,–,–,–,–,–
Dextran sulfate,–,–,–,–,–,–,–,>50 µg/mL,>50 µg/mL,>100 µg/mL,>50 µg/mL,>50 µg/mL
dextran,–,–,–,–,–,–,–,>100 µg/mL,>100 µg/mL,>100 µg/mL,>100 µg/mL,>100 µg/mL
